Where two headings read alike, the source gives them in different places. Some results are limits rather than exact numbers.

Assay [1] has as its system bladder carcinoma RT4 cell line. The experiment in a line: TNF-α-induced cytotoxicity assay (CellTiter-Glo viability). The format is cell-based. Put shortly:
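RT4 bladder carcinoma cells, 1000 per well, stimulated with 1.25 ng/mL TNFα together with compound for 72 h at 37° C., 5% CO2. Viability read by CellTiter-Glo luminescence, proportional to cellular ATP, as a measure of HOIP-dependent cytotoxicity.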

Assay [2] has as its target T1, human E3 ubiquitin-protein ligase RNF31 (HOIP) (Homo sapiens, UniProt Q96EP0).
T1 sequence (Q96EP0 695-1072 limits assumed): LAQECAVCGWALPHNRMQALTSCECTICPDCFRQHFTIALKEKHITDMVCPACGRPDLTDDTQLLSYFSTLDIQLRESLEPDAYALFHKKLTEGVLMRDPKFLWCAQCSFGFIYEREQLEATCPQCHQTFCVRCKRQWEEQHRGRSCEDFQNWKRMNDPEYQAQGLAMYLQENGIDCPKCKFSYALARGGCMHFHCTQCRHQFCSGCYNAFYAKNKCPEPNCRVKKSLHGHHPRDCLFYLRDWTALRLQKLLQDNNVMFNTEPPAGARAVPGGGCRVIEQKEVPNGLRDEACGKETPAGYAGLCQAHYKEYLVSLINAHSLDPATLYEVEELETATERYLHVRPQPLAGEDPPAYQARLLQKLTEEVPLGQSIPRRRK
The experiment in a line: Cell-free HTRF-based HOIP inhibition assay. In kind it is biochemical. Put shortly: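 Recombinant human HOIP fragment (E. coli) preincubated with compounds (100-0.005 μM, 1% DMSO) and E1 for 1 h at 25° C. E2 and substrates then added; reaction 2.5 h at 25° C. HTRF read-out, excitation 337 nm, emissions 665/620 nm.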

The subject of another assay is NF-κB signaling pathway. The experiment in a line: Cell-based dual luciferase NF-κB reporter assay (HEK293 cells, TNF stimulated). Put shortly: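 HEK293 cells transfected with Firefly luciferase and NF-κB-response-element NanoLuc plasmids; compounds at 100–0.005 µM in 1% DMSO. Cells stimulated with 2.5 ng/mL TNF 30 min after compound addition. Firefly and NanoLuc activities read after 6 h by Nano-Glo dual-luciferase detection.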

Regarding `O=C(NC/C=C/S(=O)(=O)c1ccccc1)c1cc2c([nH]c1=O)CCN(C(=O)OCC1CC1(F)F)C2` (stereo not drawn) [Example 74, (2,2-difluorocyclopropyl)methyl 3-{[(2E)-3-(benzenesulfonyl)prop-2-en-1-yl]carbamoyl}-2-oxo-1,2,5,6,7,8-hexahydro-1,6-naphthyridine-6-carboxylate], the IC50 in assay [1] (Homo sapiens, RT-4, 72 h) is no more than 10 µM; in assay [2] it was no more than 1 µM; in the assay on NF-κB signaling pathway (Homo sapiens, HEK293), no more than 1 µM.
As for `COCC(C)OC(=O)N1CCc2[nH]c(=O)c(C(=O)NC/C=C/S(=O)(=O)c3ccccc3)cc2C1` (stereo not drawn) [Example 75, 1-methoxypropan-2-vi 3-{[(2E)-3-(benzenesulfonyl)prop-2-en-1-yl]carbamoyl}-2-oxo-1,2,5,6,7,8-hexahydro-1,6-naphthyridine-6-carboxylate], the IC50 was no more than 10 µM in assay [1] (Homo sapiens, RT-4, 72 h); no more than 1 µM in assay [2]; no more than 10 µM in the assay on NF-κB signaling pathway (Homo sapiens, HEK293).
With `O=C(NC/C=C/S(=O)(=O)c1ccccc1)c1cc2c([nH]c1=O)CCN(C(=O)OCCF)C2` [Example 76, 2-fluoroethyl 3-{[(2E)-3-(benzenesulfonyl)prop-2-en-1-yl]carbamoyl}-2-oxo-1,2,5,6,7,8-hexahydro-1,6-naphthyridine-6-carboxylate], the IC50 was no more than 10 µM in assay [1] (Homo sapiens, RT-4, 72 h); no more than 1 µM in assay [2]; no more than 10 µM in the assay with NF-κB signaling pathway (Homo sapiens, HEK293).
Regarding `O=C(NC/C=C/S(=O)(=O)c1ccccc1)c1cc2c([nH]c1=O)CCN(C(=O)OCC(F)F)C2` [Example 77, 2,2-Difluoroethyl 3-{[(2E)-3-(benzenesulfonyl)prop-2-en-1-yl]carbamoyl}-2-oxo-1,2,5,6,7,8-hexahydro-1,6-naphthyridine-6-carboxylate], the IC50 in assay [1] (Homo sapiens, RT-4, 72 h) was no more than 10 µM; in assay [2], no more than 0.1 µM; in the assay on NF-κB signaling pathway (Homo sapiens, HEK293), no more than 1 µM.
Consider `O=C(NC/C=C/S(=O)(=O)c1ccccc1)c1cc2c([nH]c1=O)CCN(C(=O)OC1CC1)C2` [Example 78, cyclopropyl 3-{[(2E)-3-(benzenesulfonyl)prop-2-en-1-yl]carbamoyl}-2-oxo-1,2,5,6,7,8-hexahydro-1,6-naphthyridine-6-carboxylate], for which the IC50 is no more than 10 µM in assay [1] (Homo sapiens, RT-4, 72 h); no more than 1 µM in assay [2]; no more than 1 µM in the assay with NF-κB signaling pathway (Homo sapiens, HEK293).
In the case of `O=C(NC/C=C/S(=O)(=O)c1ccccc1)c1cc2c([nH]c1=O)CCN(C(=O)OC1CCC3(CC1)COC3)C2` [Example 79, 2-Oxaspiro[3.5]nonan-7-vi 3-{[(2E)-3-(benzenesulfonyl)prop-2-en-1-yl]carbamoyl}-2-oxo-1,2,5,6,7,8-hexahydro-1,6-naphthyridine-6-carboxylate], the IC50 in assay [1] (Homo sapiens, RT-4, 72 h) was no more than 10 µM; in assay [2] it was no more than 0.1 µM; in the assay on NF-κB signaling pathway (Homo sapiens, HEK293), no more than 10 µM.
Turning to `COCCOC(=O)N1CCc2[nH]c(=O)c(C(=O)NC/C=C/S(=O)(=O)c3ccccc3)cc2C1` [Example 80, 2-Methoxyethyl 3-{[(2E)-3-(benzenesulfonyl)prop-2-en-1-yl]carbamoyl}-2-oxo-1,2,5,6,7,8-hexahydro-1,6-naphthyridine-6-carboxylate], the IC50 was no more than 10 µM in assay [1] (Homo sapiens, RT-4, 72 h); no more than 1 µM in assay [2]; no more than 100 µM in the assay with NF-κB signaling pathway (Homo sapiens, HEK293).
In the case of `O=C(NCC=CS(=O)(=O)c1ccccc1)c1cc2c([nH]c1=O)CCN(C(=O)OC1CCOC1)C2` [Example 81, (3S)-Oxolan-3-vi 3-{[(2E)-3-(benzenesulfonyl)prop-2-en-1-yl]carbamoyl}-2-oxo-1,2,5,6,7,8-hexahydro-1,6-naphthyridine-6-carboxylate], the IC50 in assay [1] (Homo sapiens, RT-4, 72 h) was no more than 10 µM; in assay [2], no more than 1 µM; in the assay with NF-κB signaling pathway (Homo sapiens, HEK293) it was no more than 10 µM.
Consider `O=C(NCC=CS(=O)(=O)c1ccccc1)c1cc2c([nH]c1=O)CCN(C(=O)OC1CCOC1)C2` [Example 82, (3R)-oxolan-3-vi 3-{[(2E)-3-(benzenesulfonyl)prop-2-en-1-yl]carbamoyl}-2-oxo-1,2,5,6,7,8-hexahydro-1,6-naphthyridine-6-carboxylate], for which the 50% inhibitory concentration (IC50) in assay [1] (RT4, 1.25 ng/mL TNFα, 72 h, bin printed as 1.0 μM < IC50 ≤ 10 μM (lower bound in the cell to the left)) is no more than 10 µM; in assay [2] (bin printed as 100 nM < IC50 ≤ 1.0 μM (lower bound in the cell to the left)), no more than 1 µM; in the assay on NF-κB signaling pathway (HEK293, 2.5 ng/mL TNF, bin printed as 1.0 μM < IC50 ≤ 10 μM (lower bound in the cell to the left)), no more than 10 µM.
For `O=C(NC/C=C/S(=O)(=O)c1ccccc1)c1cc2c([nH]c1=O)CCN(C(=O)OCCN1CCCCC1=O)C2` [Example 83, 2-(2-Oxopiperidin-1-yl)ethyl 3-{[(2E)-3-(benzenesulfonyl)prop-2-en-1-yl]carbamoyl}-2-oxo-1,2,5,6,7,8-hexahydro-1,6-naphthyridine-6-carboxylate], the half-inhibitory concentration (IC50) in assay [1] (Homo sapiens, RT-4, 72 h) is no more than 100 µM; in assay [2], no more than 1 µM; with NF-κB signaling pathway (Homo sapiens, HEK293) it was no more than 100 µM.
`O=C(NC/C=C/S(=O)(=O)c1ccccc1)c1cc2c([nH]c1=O)CCN(C(=O)OC1CCCC1)C2` [Example 84, cyclopentyl 3-{[(2E)-3-(benzenesulfonyl)prop-2-en-1-yl]carbamoyl}-2-oxo-1,2,5,6,7,8-hexahydro-1,6-naphthyridine-6-carboxylate]: the 50% inhibitory concentration (IC50) in assay [1] (Homo sapiens, RT-4, 72 h) is no more than 1 µM; in assay [2] it was no more than 0.1 µM; with NF-κB signaling pathway (Homo sapiens, HEK293), no more than 1 µM.
As for `CC1(C)CC1COC(=O)N1CCc2[nH]c(=O)c(C(=O)NC/C=C/S(=O)(=O)c3ccc(Cl)cc3)cc2C1` (stereo not drawn) [Example 85, (2,2-dimethylcyclopropyl)methyl 3-{[(2E)-3-(4-chlorobenzenesulfonyl)prop-2-en-1-yl]carbamoyl}-2-oxo-1,2,5,6,7,8-hexahydro-1,6-naphthyridine-6-carboxylate], the 50% inhibitory concentration (IC50) is no more than 1 µM in assay [1] (Homo sapiens, RT-4, 72 h); no more than 0.1 µM in assay [2]; no more than 1 µM in the assay with NF-κB signaling pathway (Homo sapiens, HEK293).
For `O=C(NC/C=C/S(=O)(=O)c1ccc(Cl)cc1)c1cc2c([nH]c1=O)CCN(C(=O)OCC1CC1(F)F)C2` (stereo not drawn) [Example 86, (2,2-difluorocyclopropyl)methyl 3-{[(2E)-3-(4-chlorobenzenesulfonyl)prop-2-en-1-yl]carbamoyl}-2-oxo-1,2,5,6,7,8-hexahydro-1,6-naphthyridine-6-carboxylate], the 50% inhibitory concentration (IC50) in assay [1] (Homo sapiens, RT-4, 72 h) was no more than 10 µM; in assay [2], no more than 0.1 µM; in the assay with NF-κB signaling pathway (Homo sapiens, HEK293), no more than 1 µM.
For the compound `O=C(NC/C=C/S(=O)(=O)c1ccc(Cl)cc1)c1cc2c([nH]c1=O)CCN(C(=O)OC1COC1)C2` [Example 87, oxetan-3-vi 3-{[(2E)-3-(4-chlorobenzenesulfonyl)prop-2-en-1-yl]carbamoyl}-2-oxo-1,2,5,6,7,8-hexahydro-1,6-naphthyridine-6-carboxylate], the IC50 in assay [1] (Homo sapiens, RT-4, 72 h) was no more than 100 µM; in assay [2], no more than 0.1 µM; in the assay with NF-κB signaling pathway (Homo sapiens, HEK293), no more than 10 µM.
Take `O=C(NC/C=C/S(=O)(=O)c1ccc(Cl)cc1)c1cc2c([nH]c1=O)CCN(C(=O)OCC1CC1)C2` [Example 88, cyclopropylmethyl 3-{[(2E)-3-(4-chlorobenzenesulfonyl)prop-2-en-1-yl]carbamoyl}-2-oxo-1,2,5,6,7,8-hexahydro-1,6-naphthyridine-6-carboxylate]: the IC50 in assay [1] (Homo sapiens, RT-4, 72 h) is no more than 1 µM; in assay [2] it was no more than 0.1 µM; in the assay on NF-κB signaling pathway (Homo sapiens, HEK293), no more than 1 µM.
For the compound `O=C(NC/C=C/S(=O)(=O)c1ccccc1)c1cc2c([nH]c1=O)CCN(C(=O)OCCc1ccco1)C2` [Example 89, 2-(furan-2-yl)ethyl 3-{[(2E)-3-(benzenesulfonyl)prop-2-en-1-yl]carbamoyl}-2-oxo-1,2,5,6,7,8-hexahydro-1,6-naphthyridine-6-carboxylate], the IC50 in assay [1] (Homo sapiens, RT-4, 72 h) is no more than 1 µM; in assay [2], no more than 1 µM; in the assay with NF-κB signaling pathway (Homo sapiens, HEK293), no more than 10 µM.

The term IC50 denotes the concentration at which inhibition is half-maximal.

Source of the values: patent publication US20260250250A1, “3-(SULPHONYL OR SULFONIMIDOYL)PROP-2-EN-1-YL]-2-OXO-1,2-DIHYDROPYRIDINE-3-CARBOXAMIDE DERIVATIVES” (Flinder Therapeutics B.V., priority 2022, published 2026).
